Measured values taken from US20230225985A1, “TERPE[…] AND THEIR USE” (Phytotherapeutix Ltd., priority 2020, published 2023).
“And” between values parts separate entries of the source, which are not always exact repeats. Equal values may be shown once. Read-outs that look alike come from different tables or passages of the source.

How the values were obtained:
Assay type in all cases: in vivo, Mouse (ICR:CD-1)
[1] = system: PTZ mouse model of seizures; assay: PTZ-induced seizures study; settings: for Protection from clonic seizures (PTZ) vs vehicle / Protection from tonic hindlimb seizures (PTZ) vs vehicle: 200 mg/kg IP, PTZ 100 mg/kg i.p.
Method: Route(s) of administration: Intraperitoneal (i.p.) and per oral (p.o.) (Diazepam)
(§1) Vehicle for the test compounds: 1:1:18 ethanol:cremophor (Kolliphor) EL:0.9% saline
Vehicle for diazepam: 0.5% MC, 0.1% Tween 80 in water
Interval between dose and evaluation: 30 min for test articles and diazepam, 60 min for CBD
Mice were acclimated to the procedure room for at least 30 minutes. Pentylenetetrazole (PTZ; SigmaAldrich) was formulated in water to a concentration of 20 mg/ml. Injections of PTZ were made at a volume of 5 ml/kg to produce a final dose of 100 mg/kg. PTZ injections were i.p. Diazepam was formulated at a concentration of 2 mg/ml and administered at volume of 10 ml/kg to produce a final dose of 20 mg/kg. Time to initial myoclonic and tonic hindlimb extensor response was measured. A 10-min maximum latency to seizure was imposed.
(§2) The data was expressed as mean+SEM. Statistical analysis using one-way ANOVA with post-hoc Fisher's LSD test was used to determine statistical significance compared to the vehicle-treated animals.

[2] = system: MES mouse model of seizures; assay: Maximal Electroshock (MES) seizure study; settings: for Effect in MES study (latency to tonic hindlimb seizure) vs vehicle: 200 mg/kg IP
Method: Route(s) of administration: Intraperitoneal (i.p.) and per oral (p.o.)
as §1
Vehicle for phenytoin: 0.5% MC in water
Dose Levels: 100-200 mg/kg (Table 2), Phenytoin 60 mg/kg
Interval between dose and evaluation: 30 min for test articles and phenytoin, 60 min for CBD
Animals were administered vehicle, phenytoin, CBD or test compounds and gross behavioural observations were done for 30 minutes. Proparacaine hydrochloride ophthalmic solution (Butler AHS, Dublin, Ohio) was applied approximately 10 minutes prior to testing to numb the eyes. Thirty to sixty minutes after administration of vehicle, phenytoin, CBD or test compounds, 0.9% saline solution (sodium chloride in water) was applied to both eyes and electro-convulsions were produced by an alternating current delivered via corneal electrodes by a Rodent Shocker generator at a frequency of 60 Hz (Harvard Apparatus, Holliston, Mass.). Parameters for the ICR:CD1 mice were 0.2 s stimulus duration at an intensity of 25 mA. The criterion for seizure occurrence were presence of a tonic hind limb extension, defined as extension exceeding a 90-degree angle with the plane of the body. […] Any seizure activity (i.e. clonic seizures defined as rapid spasms or jerky movements of the limbs) prior to tonic hind limb seizure were recorded as presence of seizure (noted as 1-yes, 0-no). After seizure exhibition or 20-second timeout, mice were euthanized via cervical dislocation.
as §2

[3] = PK study: plasma levels after i.p. administration (LC/MS/MS); settings: 100 mg/kg i.p.; for Time of maximal concentration in plasma after the injection: sampling at 30, 60, 120 min; for concentration at 30 min / concentration at 60 min / concentration at 120 min: CD-1, mouse, plasma, intraperitoneal, 100 mg/kg
Method: Route(s) of administration: Intraperitoneal (i.p.)
Vehicle for the test compounds and CBD: 1:1:18 ethanol:cremophor (Kolliphor) EL:0.9% saline
IP administration: 0.5 h (30 min), 1 h, 2 h,
For testing of each compound, six CD-1 mice were divided into 2 groups of 3. Animals were administered test agents via i.p. route and blood collected at 30, 60 and 120 min, administration as outlined in Table 1. Blood samples were collected in EDTA-coated microfuge tubes, inverted and placed on an ice pack prior to centrifugation and storage at −70° C. Samples were extracted using an acetonitrile/protein precipitation method and levels of test agent analysed by LC/MS/MS.
Bioanalytical detection method was developed using an LC/MS/MS (ABI 5000 or 5500). Standard curves of the test agent were prepared in an appropriate biological matrix (plasma). Levels of test article was measured in plasma as per the developed method.
Levels were determined by extrapolating the concentration from a standard curve using linear regression analysis. Method development and bioanalysis was performed by a partner company, Keystone Bioanalytical (North Wales, Pa., US).

[4] = 30 min pretreatment, listed as (−)-trans CBD-PET
[5] = 30 min pretreatment, listed as CBD-PET
[6] = 30 min pretreatment, listed as (−)-trans CBD-PET-OH
[7] = 30 min pretreatment, listed as CBD-PET-OH

Question: For CN1C(=O)CN=C(c2ccccc2)c2cc(Cl)ccc21 [diazepam, reference compound], which “Protection from the seizures (PTZ, clonic and tonic hindlimb)” value ([1]; 30 mg/kg PO (Table 3), 30 min pretreatment, positive control) is on record?
Answer: 100%

Question: Which “Protection from the seizures (MES)” value ([2]; 60 mg/kg PO, 30 min pretreatment, positive control) does the source give for O=C1NC(=O)C(c2ccccc2)(c2ccccc2)N1 [phenytoin, reference compound] here?
Answer: 100%

Question: Which “Effect in MES model vs vehicle” value ([2]; 100 mg/kg IP, 60 min prior to MES) does the source give for C=C(C)[C@@H]1CCC(C)=C[C@H]1c1c(O)cc(CCCCC)cc1O [Cannabidiol, reference compound] here?
Answer: did not produce a significant effect

Question: What about the “Effect in PTZ model vs vehicle” value ([1]; 100 mg/kg IP, 60 min prior to PTZ) of the same molecule?
Answer: did not produce a significant effect

Question: Which “(—)-trans-CBD-PET in plasma” value ([3]; 30 min, individual animals) does the source give for C=C(C)[C@@H]1CCC(C)=C[C@H]1c1c(O)cc(CCc2ccccc2)cc1O [(−)-trans-CBD-PET, (1′R,2′R)-5′-methyl-4-phenethyl-2′-(prop-1-ene-2-yl)-1′,2′,3′,4′-tetrahydro-[1,1′-biphenyl]-2,6-diol] here?
Answer: 3519.2 ng/mL and 3872.3 ng/mL

Question: And the “(—)-trans-CBD-PET in plasma” value ([3]; 60 min, individual animals)?
Answer: 2729.5 ng/mL and 1728.7 ng/mL

Question: And the “(—)-trans-CBD-PET in plasma” value ([3]; 120 min, individual animals)?
Answer: 2188.6 ng/mL and 770.3 ng/mL and 982.7 ng/mL

Question: And the “Time of maximal concentration in plasma after the injection” value [3]?
Answer: 30 min

Question: And the concentration at 30 min ([3]; 30 min, average of 3 mice, read-out: Average (ng/ml), (—)-trans-CBD-PET in plasma)?
Answer: 3810 ng/mL

Question: What about the concentration at 30 min ([3]; 30 min, individual animals, read-out: (—)-trans-CBD-PET in plasma) of the same molecule?
Answer: 4030 ng/mL

Question: And the concentration at 60 min ([3]; 60 min, average of 3 mice, read-out: Average (ng/ml), (—)-trans-CBD-PET in plasma)?
Answer: 2140 ng/mL

Question: What about the concentration at 60 min ([3]; 60 min, individual animals, read-out: (—)-trans-CBD-PET in plasma) of the same molecule?
Answer: 1960 ng/mL

Question: What about the concentration at 120 min ([3]; 120 min, average of 3 mice, read-out: Average (ng/ml), (—)-trans-CBD-PET in plasma) of the same molecule?
Answer: 1310 ng/mL

Question: What about the “Effect in MES study (latency to tonic hindlimb seizure) vs vehicle” value ([2]; 30 min pretreatment) of the same molecule?
Answer: inactive

Question: And the “Protection from clonic seizures (PTZ) vs vehicle” value [1, 4]?
Answer: significant protection

Question: What about the “Protection from tonic hindlimb seizures (PTZ) vs vehicle” value [1, 4] of the same molecule?
Answer: significant effect

Question: What about the “Protection from clonic seizures (PTZ) vs vehicle” value [1, 5] of the same molecule?
Answer: activity against both clonic and tonic seizures

Question: What about the “Protection from tonic hindlimb seizures (PTZ) vs vehicle” value [1, 5] of the same molecule?
Answer: activity against both clonic and tonic seizures

Question: What does the source list for C=C(C)[C@@H]1CCC(C)=C[C@H]1c1c(O)cc(CCc2ccc(O)cc2)cc1O [(−)-trans-CBD-PET-OH, (1′R,2′R)-4-(4-hydroxyphenethyl)-5′-methyl-2′-(prop-1-ene-2-yl)-1′,2′,3′,4′-tetrahydro-[1,1′-biphenyl]-2,6-diol]?
Answer: (—)-trans-CBD-PET-OH in plasma ([3]; 30 min, individual animals): 8897.4 ng/mL and 8936.2 ng/mL; (—)-trans-CBD-PET-OH in plasma ([3]; 60 min, individual animals): 8877.8 ng/mL and 8055.5 ng/mL; (—)-trans-CBD-PET-OH in plasma ([3]; 120 min, individual animals): 2831.1 ng/mL and 3274.9 ng/mL; Time of maximal concentration in plasma after the injection [3]: 30 min; concentration at 30 min ([3]; 30 min, average of 3 mice, read-out: Average (ng/ml), (—)-trans-CBD-PET-OH in plasma): 8120 ng/mL; concentration at 30 min ([3]; 30 min, individual animals, read-out: (—)-trans-CBD-PET-OH in plasma): 6520 ng/mL; concentration at 60 min ([3]; 60 min, average of 3 mice, read-out: Average (ng/ml), (—)-trans-CBD-PET-OH in plasma): 7920 ng/mL; concentration at 60 min ([3]; 60 min, individual animals, read-out: (—)-trans-CBD-PET-OH in plasma): 6840 ng/mL; concentration at 120 min ([3]; 120 min, average of 3 mice, read-out: Average (ng/ml), (—)-trans-CBD-PET-OH in plasma): 3460 ng/mL; concentration at 120 min ([3]; 120 min, individual animals, read-out: (—)-trans-CBD-PET-OH in plasma): 4290 ng/mL; Effect in MES study (latency to tonic hindlimb seizure) vs vehicle [2, 6]: significantly different from vehicle; Effect in MES study (latency to tonic hindlimb seizure) vs vehicle [2, 7]: effective; Protection from tonic hindlimb seizures (PTZ) vs vehicle [1, 6]: significant effect; Protection from tonic hindlimb seizures (PTZ) vs vehicle [1, 7]: particularly effective against tonic seizures
